Reference: patent publication US8022178B2, “Modified self-assembling peptides” (Massachusetts Institute of Technology, priority 2006, dated 2011)

Legend:
[1] = tested on: adipose derived stem cells (ADSC); experiment: Growth factors secreted by ADSC into the culture medium (ELISA); format: cell-based, human; conditions: from 1 day up to 7 days of culture, control tissue culture plate, FIG. 35
Procedure: The peptide solutions shown in Table 25 were loaded in the culture inserts (10 mm diameter, Millicell-CM, Millipore) and gels were formed using cell culture medium (DMEM-F12+10% FBS, Gibco). ADSC were plated at 4×10^4 cells on the inserts and cultured up to 7 Days.
The growth factors secreted into the culture medium were also evaluated using ELISA method (FIGS. 35A-35B). The growth factors secreted from stem cell are considered to be main source of the cell therapy by reducing apotosis and increasing angiogenesis. Especially HGF and VEGF are considered to key components for reducing apotosis and increasing angiogenesis. The medium of ADSC cultured on tissue culture plate was used as control (shown as TCP). […] For VEGF, all peptide matrix had increase of VEGF secretion in 1 day culture medium.

[2] = tested on: Mouse preosteoblast cell line (MC3T3-E1); experiment: Osteocalcin secreted in culture medium (EIA); format: cell-based; conditions: FIG. 17 compared to FIG. 6; versus PRGmx or PRFmx
Procedure: Mouse preosteoblast cell line (MC3T3-E1) was used to compare the proliferation and differentiation effects of the motifs with RAD16-1 and Collagen-I hydrogels as controls. The proliferation was measured by DNA contents and the differentiation effects were evaluated using Alkaline phosphatase (ALP) activity and secreted Osteocalcin. Alkaline phosphatase is known to be differentiation marker of osteoblast in earlier stage. Secreted Osteocalcin is known to be differentiation marker of osteoblast in later stage and its activity is correlated with the bone mineralization.
1% RAD16-I solution [self-assembling peptide solution] was obtained as RAD16-I (Puramatrix™, 3DM Inc./BD Bioscience). The functionalized peptides of Table 2 were dissolved in water at final concentration of 1% (v/w). The functionalized peptide solutions were then mixed with 1% RAD16-I solution at a ratio of 1:1 (Table 4). Each peptide solution was loaded in the Culture plate inserts (10 mm diameter, Millicell-CM, Millipore). […]
Cell proliferation was evaluated using DNA contents in the hydrogel using PicoGreen dsDNA Kits (Molecular Probes). ALP activity was quantitatively measured from cell lysis using Alkaline Phosphatase Fluorescence Assay Kit (Sigma). Osteocalcin was measured from cell culture medium using Mouse Osteocalcin EIA Kit (Biomedical Technologies Inc.).

Substance	HGF secreted into the culture medium [1]	effect to promote differentiation (osteocalcin) [2]
Ac(RADA)4-CONH2	significant increase	–
Ac(RADA)4GGFHRRIKA-CONH2 (Ac-RADARADARADARADAGGFHRRIKA-NH2) [FHR = 1% solution; FHR-2P = 2% solution]	–	not so strong
